Results: patent US10781224B2, “Bis(oxymethyl)phosphinic acid and biogenic metal salts thereof as regulators of plant growth and development” (priority 2016, dated 2020)
“And” between values parts separate entries of the source, which are not always exact repeats. Equal values may be shown once.

What was measured:
Type in all cases: in vivo
[1] = system: winter wheat (Vershin variety); experiment: Winter wheat seed treatment with BHMPA salts: germination energy and germination rate
Method: (§1) Control—Soaking Seeds in Water;
(§2) Experimental versions—soaking seeds in BHMPA solutions and solutions of BHMPA Ca, Mg, Na, Co, Mn, Cu, and Zn salts at 1·10^−6-1·10^−12% concentrations (doses). The studies were conducted in laboratory in Petri dishes; seed bed—two layers of filter paper. 50 seeds soaked in water (control) and in the solutions of the tested compounds (experimental) were placed into each dish. Wheat, corn, and rice seeds were exposed for one hour.
(§3) Analysis was conducted according to the government standards GOST 12038-84 “Crop seeds. Technical conditions for determining the germination energy and germination rate”, GOST 12044-93 “Crop seeds. Methods for determining disease contamination.”
(§4) Seed germination energy and rate were calculated in percent as an arithmetic mean of the four experimental results (germination energy on the 4th day, wheat germination on the 8th day, rice and corn germination—on the 7th day). Germination was determined based on the germinating power indicators (length of the roots and sprouts and their wet and dry mass per 100 shoots).
(§5) The effect of pre-sowing seed treatment with the claimed BHMPA salts of biogenic metals was studied on winter wheat (Vershin variety), corn (Krasnodar 385 MV variety), and rice (Diamant variety).

[2] = system: corn (Krasnodar 385 MV variety); experiment: Corn seed treatment with BHMPA salts: germination energy and germination rate
Method: as §1, §2, §3, §4, §5

[3] = system: rice (Diamant variety); experiment: Rice seed treatment with BHMPA salts: germination energy and germination rate; conditions: for Germination energy, % / Germination rate, %: rice seed treatment, solution 1 · 10^−10%; for Germination energy / Germination rate: rice
Method: as §1, §2, §3, §4, §5

[4] = winter wheat Vershin, 1·10^−6% solution
[5] = winter wheat Vershin, 1·10^−7% solution
[6] = winter wheat Vershin, 1·10^−8% solution
[7] = winter wheat Vershin, 1·10^−9% solution
[8] = winter wheat Vershin, 1·10^−10% solution
[9] = winter wheat Vershin, 1·10^−11% solution
[10] = winter wheat Vershin, 1·10^−12% solution
[11] = winter wheat, comparative study vs Melaphen, 1·10^−9% solution
[12] = 1·10^−9% solution, listed as Zn
[13] = comparative study vs Melaphen, 1·10^−8% solution

O=P([O-])(CO)CO.O=P([O-])(CO)CO.[Zn+2] [Zn-salt, Zinc BHMPA Salt]
Germination energy [1, 4]: 91.9%
Germination rate [1, 4]: 95.3%
Germination energy [1, 5]: 92.7%
Germination rate [1, 5]: 96.0%
Germination energy [1, 6]: 94.1%
Germination rate [1, 6]: 97.3%
Germination energy [1, 7]: 96.1%
Germination rate [1, 7]: 98.3%
Germination energy [1, 8]: 95.4%
Germination rate [1, 8]: 97.3%
Germination energy [1, 9]: 93.2%
Germination rate [1, 9]: 96.0%
Germination energy [1, 10]: 92.3%
Germination rate [1, 10]: 96.0%
Germination energy [1, 11]: 94.0%
Germination rate [1, 11]: 97.3%
Germination energy ([2]; 1·10^−6% solution): 77.7%
Germination rate ([2]; 1·10^−6% solution): 80.0%
Germination energy ([2]; 1·10^−7% solution): 84.0%
Germination rate ([2]; 1·10^−7% solution): 86.7%
Germination energy ([2]; 1·10^−8% solution): 88.3%
Germination rate ([2]; 1·10^−8% solution): 90.8%
Germination energy ([2]; 1·10^−9% solution): 88.3%
Germination rate ([2]; 1·10^−9% solution): 90.8%
Germination energy [2, 12]: 84.2%
Germination rate [2, 12]: 86.7%
Germination energy ([2]; 1·10^−10% solution): 82.3%
Germination rate ([2]; 1·10^−10% solution): 85.0%
Germination energy ([2]; 1·10^−11% solution): 80.7%
Germination rate ([2]; 1·10^−11% solution): 83.3%
Germination energy ([2]; 1·10^−12% solution): 79.0%
Germination rate ([2]; 1·10^−12% solution): 81.7%
Germination energy [2, 13]: 88.0%
Germination rate [2, 13]: 95.7%
Germination energy, % [3]: 89.5%
Germination rate, % [3]: 96.5%
Germination energy ([3]; 1·10^−6% solution): 83.0%
Germination rate ([3]; 1·10^−6% solution): 89.0%
Germination energy ([3]; 1·10^−7% solution): 85.0%
Germination rate ([3]; 1·10^−7% solution): 91.7%
Germination energy ([3]; 1·10^−8% solution): 86.3%
Germination rate ([3]; 1·10^−8% solution): 94.3%
Germination energy ([3]; 1·10^−9% solution): 88.7%
Germination rate ([3]; 1·10^−9% solution): 96.0%
Germination energy ([3]; 1·10^−10% solution): 87.0%
Germination rate ([3]; 1·10^−10% solution): 94.0%
Germination energy ([3]; 1·10^−11% solution): 85.7%
Germination rate ([3]; 1·10^−11% solution): 91.3%
Germination energy ([3]; 1·10^−12% solution): 83.7%
Germination rate ([3]; 1·10^−12% solution): 89.0%
Germination energy [3, 13]: 89.5%
Germination rate [3, 13]: 96.5%

Copper BHMPA Salt [Cu-salt]
Germination energy [1, 4]: 81.0%
Germination rate [1, 4]: 84.0%
Germination energy [1, 5]: 87.3%
Germination rate [1, 5]: 90.0%
Germination energy [1, 6]: 91.4%
Germination rate [1, 6]: 96.0%
Germination energy [1, 7]: 94.9%
Germination rate [1, 7]: 98.0% and 94.3%
Germination rate ([1]; winter wheat Vershin, 1·10^−9% solution, listed as Cu): 98.0%
Germination energy [1, 8]: 92.1%
Germination rate [1, 8]: 96.7%
Germination energy [1, 9]: 91.7%
Germination rate [1, 9]: 94.0%
Germination energy [1, 10]: 87.5%
Germination rate [1, 10]: 90.0%
Germination energy [1, 11]: 94.7%
Germination rate [1, 11]: 98.7%
Germination energy ([2]; 1·10^−6% solution): 80.0%
Germination rate ([2]; 1·10^−6% solution): 82.5%
Germination energy ([2]; 1·10^−7% solution): 82.3%
Germination rate ([2]; 1·10^−7% solution): 85.0%
Germination energy ([2]; 1·10^−8% solution): 91.8%
Germination rate ([2]; 1·10^−8% solution): 94.2%
Germination energy ([2]; 1·10^−9% solution): 90.0%
Germination rate ([2]; 1·10^−9% solution): 92.3%
Germination energy ([2]; 1·10^−10% solution): 85.8%
Germination rate ([2]; 1·10^−10% solution): 88.3%
Germination energy ([2]; 1·10^−11% solution): 82.3%
Germination rate ([2]; 1·10^−11% solution): 85.0%
Germination energy ([2]; 1·10^−12% solution): 78.8%
Germination rate ([2]; 1·10^−12% solution): 81.7%
Germination energy [2, 13]: 87.7%
Germination rate [2, 13]: 97.0%
Germination energy, % [3]: 88.0%
Germination rate, % [3]: 96.0%
Germination energy ([3]; 1·10^−6% solution): 81.7%
Germination rate ([3]; 1·10^−6% solution): 88.3%
Germination energy ([3]; 1·10^−7% solution): 84.3%
Germination rate ([3]; 1·10^−7% solution): 90.0%
Germination energy ([3]; 1·10^−8% solution): 85.7%
Germination rate ([3]; 1·10^−8% solution): 92.0%
Germination energy ([3]; 1·10^−9% solution): 87.7%
Germination rate ([3]; 1·10^−9% solution): 94.0%
Germination energy ([3]; 1·10^−10% solution): 84.7%
Germination rate ([3]; 1·10^−10% solution): 96.7%
Germination energy ([3]; 1·10^−10% solution, listed as Cu): 88.7%
Germination energy ([3]; 1·10^−11% solution): 85.7%
Germination rate ([3]; 1·10^−11% solution): 94.3%
Germination energy ([3]; 1·10^−12% solution): 82.0%
Germination rate ([3]; 1·10^−12% solution): 87.7%
Germination energy [3, 13]: 88.0%
Germination rate [3, 13]: 96.0%
